Laboratory results from patent US5332732A, “Thiophene and pyridine antipsychotic agents” (McNeilab, Inc., priority 1992, dated 1994).
Counter-ions that a name gives are not always drawn.

System: Conditioned Avoidance Responding (Rat)
Test: Block of Conditioned Avoidance Responding (Rat) test (CAR)
Assay type: in vivo, Male Fischer 344 rats
Details: for % escape loss: group mean % failures to escape; for % Inhibition CAR: mean % change in CAR vs vehicle day, negative = blockade
Excerpt: The antipsychotic activity of the compounds of the invention may be determined by the Block of Conditioned Avoidance Responding (Rat) test (CAR), the references being Cook, L. and E. Weidley in Ann. […] P. Reynolds Trends Pharmacol. Sci. 1992, 13, 116). […] Block of Conditioned Avoidance Responding (Rat) Apparatus: Rat operant chambers, housed within sound attenuated booths, both from […] Instruments Ltd., were used in this test. The test chamber (8" H×903/8" W×9" D) is constructed of aluminum and plexiglass with floor grid bars of stainless-steel (1/8" O.D.) spaced 9/16" apart. A stainless-steel operation level 11/2" wide projects 3/4" into the chamber and is positioned 2-2/8" above the grid floor. The shock stimulus is delivered via the grid floor by a Coulbourn Instruments solid state module. The parameters of the test and the collection of data are controlled automatically. Training: Male, Fischer 344 rats obtained from Charles River (Kingston, N.Y.) weighing more than 200 g, are individually housed with chow and water provided ad libitum. The rats are trained for two weeks to approach criterion levels in the avoidance test (90% avoidance rate). One-hour training sessions are run at about the same time each day for four or five days a week. The training session consists of 120 tdals, with the conditioned stimuli presented every 30 sec. A trial begins with presentation of the conditioned stimuli (a light and a tone). If the rat responds by depressing the operant lever during the 15-second presentation of the conditioned stimuli, the trial is terminated .and the animal is credited with a CAR. Failure to respond during the conditioned stimuli causes the presentation of the unconditioned stimulus (UCS), a 0.7 mA shock which is accompanied by a light and tone for […]. If the rat depressed the lever within the ten-second period, the shock and trial are terminated and an escape response recorded. If the rat fails to depress the lever during the UCS (shock), the trial is terminated after ten seconds of shock and the absence of a response is scored as a failure to escape. […] presses have no effect. If a rat performs at the 90% CAR level for two weeks, it is then run twice a week on the test schedule (see below) until baseline performance stabilized. Before any drug is administered, two weeks of CAR at a rate of 90% or better is required. Determination of ED50 Values Trained rats are run in a one-hour session on two consecutive days at the same time and in the same test chamber each day. The sessions consist of 60 trials, one every minute. The conditioned stimuli are presented for 15 sec (maximum) and the unconditioned stimuli five sec (maximum). On Day 1, a vehicle solution is administered to the rats at a time preceding the trial run corresponding to the pretreatment time for the test compound. The route of administration and the volume of vehicle are also matched to that of the test compound. […] The percent change in CAR on the drug treatment day compared to vehicle pretreatment day is the key measure. The percent change (% change) in CAR is determined using the following formula: % change CAR=((Day 2% CAR/Day 1% CAR)×100)-100 A negative number indicates a blockade of CAR, whereas a positive number would indicate increased CAR. The test results are reported as the mean % change for the group of rats. A reading of -20% is generally taken to represent a minimum value for a compound to be designated as active at a given dose in the CAR test. Failure to escape was calculated for each animal as follows: % Failures=# of Failures to Escape/# of trials The % failures, viz., loss of escape, is also reported as a group mean. Failures to escape are monitored closely and a session is terminated if ten failures occurred. ED50 values and 95% confidence limits are calculated using linear regression analysis.

| SMILES | % escape loss (5 mpk, PI) | % Inhibition CAR (5 mpk, PI) | % escape loss (15 mpk) | % Inhibition CAR (15 mpk) |
| --- | --- | --- | --- | --- |
| CC(C)Oc1ccccc1N1CCN(Cc2cc(C(=O)N3CCCCC3)cs2)CC1.Cl [CP #2, 1-[[5-[[1-[2-(1-Methylethoxy)phenyl]-4-piperazinyl]methyl]-3-thienyl]carbonyl]piperidine Monohydrochloride] | 34% | -72% |  |  |
| CC(C)Oc1ccccc1N1CCN(Cc2ccc(CN3CCCCC3=O)s2)CC1 [CP #5, 1-[[5-[[1-[2-(1-Methylethoxy)phenyl-4-piperazinyl]methyl]-2-thienyl]methyl]-2-piperidinone Hydrochloride] | 3% | -58% |  |  |
| CC(C)Oc1ccccc1N1CCN(Cc2cccc(CN3CCCCC3=O)n2)CC1 [CP #7, 1-[[6-[[1-[2-(Methylethoxy)phenyl]-4-piperazinyl]methyl]pyridinyl]methyl]-2-piperidinone Hydrochloride] |  |  | 0% | -85% |
| CC(C)Oc1ccccc1N1CCN(Cc2ccc(C(=O)N3CCCCC3)s2)CC1.O=C(O)/C=C/C(=O)O [CP #1, 1-[[5-[[1-[2-(1-Methylethoxy)phenyl]-4-piperazinyl]methyl]-2-thienyl]carbonyl]piperidine Fumarate] | 18% | -56% |  |  |
| O=C1CCCCN1Cc1ccc(CN2CCN(c3cccc4ccoc34)CC2)s1 [CP #6, 1-[[5-[[1-(7-Benzofuranyl)-4-piperazinyl]methyl]-2-thienyl]methyl]-2-piperidinone1.5 Fumarate Hydrate] | 5% | -63% |  |  |
| CC(C)Oc1ccccc1N1CCN(Cc2ccc(C(=O)N3CCCCCC3)s2)CC1 [CP #3, Hexahydro-1-[[5-[[1-[2-(1-methylethoxy)phenyl]-4-piperazinyl]methyl]2-thienyl]carbonyl]-1H-azepine Monohydrochloride Hemi Hydrate] | 3% | -8% |  |  |
| CC(C)Oc1ccccc1N1CCN(Cc2cc(C(=O)N3CCCCCC3)cs2)CC1 [CP #4, Hexahydro-1-[5-[[-1-[2-(1-Methylethoxy)phenyl-4-piperazinyl]methyl]-3-thienyl]carbonyl]-1-H-azepine Hydrochloride Hydrate] | 3% | -41% |  |  |
